Values after ≈ are worked out from the molar mass of the structure shown. Read-outs that look alike come from different tables or passages of the source.
What was measured:
[1] = tested on: linezolid-resistant E. faecalis; assay: MIC against linezolid-resistant E. faecalis strains; format: cell-based, Enterococus faecalis; conditions: one value per group of strains; for MIC: Enterococcus faecalis, read-out: E. faecalis (no. of strains) MIC
Text: (§1) Compounds of this invention can have useful activity against a variety of pathogenic microorganisms. The in vitro activity of compounds of this invention can be assessed by standard testing procedures such as the determination of minimum inhibitory concentration (MIC) by agar dilution as described in “Approved Standard. Methods for Dilution Antimicrobial Susceptibility Tests for Bacteria That Grow Aerobically”, 3rd. ed., published 1993 by the National Committee for Clinical Laboratory Standards, Villanova, Pa., USA. Minimum inhibitory concentration (MIC) refers to the lowest concentration of drug (μg/mL) that inhibits visible growth of the organism. Lower MIC values indicate a higher antibacterial activity. Typically, compounds of the present invention have useful potency against Gram-positive or Gram-negative pathogens with MIC values of ≦8 μg/mL. To measure useful antibacterial activity against multiple bacterial isolates or strains, MIC90 (or minimal inhibitory concentration of the drug that inhibits visible growth of 90% of the microbes in each bacterial specie panel) is determined. Lower MIC number indicates an elevated degree of useful antibacterial activity, while higher MIC number indicates a reduced antibacterial activity. An agent with too high MIC against a bacterial pathogen can not be used for the treatment of infections caused by such microbial species.
(§2) The useful activity of representative compounds of the present invention against several isolates of linezolid-resistant Staphylococcus aureus, Enterococus faecalis and Enterococcu faecium illustrated by the MIC data of Table 2.

S. aureus = assay: MIC90 against linezolid-susceptible clinical isolates of S. aureus; format: cell-based, Staphylococcus aureus; conditions: for MIC90: Staphylococcus aureus, 34 strains, linezolid-susceptible, including MRSA
Text: as §1
(§3) The useful activity of compounds of the present invention against an expanded set of clinical isolates of Staphylococcus aureus (including methicillin-resistant strain, MRSA), Enterococci (including Enterococcus faecalis and Enterococus faecium), and […] is illustrated by the MIC90 data in Table 1.

[2] = tested on: linezolid-resistant E. faecium; assay: MIC against linezolid-resistant E. faecium strains; format: cell-based, Enterococcus faecium; conditions: one value per group of strains; for MIC: Enterococcus faecium, read-out: E. faecium (no. of strains) MIC
Text: as §1, §2

Enterococci = assay: MIC90 against linezolid-susceptible Enterococci; format: cell-based; conditions: for MIC90: Enterococcus faecalis, 34 strains, linezolid-susceptible
Text: as §1, §3

S. pneumoniae = assay: MIC90 against linezolid-susceptible S. pneumoniae; format: cell-based, Streptococcus pneumoniae; conditions: for MIC90: Streptococcus pneumoniae, read-out: S. pneumoniae (34 strains) MIC90
Text: as §1, §3

reticulocytes = assay: 5-days mouse sub-acute toxicity test (myelosuppression, reticulocyte count); format: in vivo; conditions: for Ratio for reticulocyte count relative to that for compound of Example 1 / fold drop in the reticulocyte cells counts compared to compound of Example 1: 37.5 mg/kg/day twice-daily, day 5
Description: The potential of representative compounds of this invention for myelosuppression has been evaluated in a 5-days mouse sub-acute toxicity test. For comparison purposes, Reference Compound 14 (Example 143 of publication US 2003/0166620) and Reference Compound 15 (TR-700 or torezolid; publications PCT WO2005/058886 and PCT WO2010/042887) have been included. The compounds were dosed to mice at 37.5 mg/kg/day on a twice-daily schedule. On day 5, blood was harvested for hematology testing. The toxicity was evaluated based on the reduction in the number of reticulocytes, previously described as the key marker for myelosuppression signs in pre-clinical testing of oxazolidinones, including linezolid. Thus, a higher degree of a reduction in the reticulocyte count is indicative of an elevated toxicity, while a lower drop in the reticulocyte count indicates a reduced propensity to the myelosuppression effect on the blood cells.

H. influenzae = assay: MIC against isolates of H. influenzae; format: cell-based, Haemophilus influenzae; conditions: for MIC: Haemophilus influenzae
Text: as §1
The useful activity of representative compounds of the present invention against several isolates of H. influenzae is illustrated by the MIC data of Table 3. H. influenzae is a fastidious Gram-negative pathogen implicated in multiple infections, including pneumonia and bacterial meningitis. No oxazolidinone agent is presently approved for the treatment of H. influenzae infections.

[3] = tested on: key Gram-positive pathogens; assay: MIC against key Gram-positive pathogens, further compounds (tests of Table 1); format: cell-based; conditions: in the tests of Table 1
Text: as §1, §3

[4] = tested on: linezolid-resistant bacterial strains; conditions: cited from earlier work
Staphylococcus species = conditions: cited from earlier work
[5] = tested on: linezolid-resistant S. aureus; assay: MIC against linezolid-resistant S. aureus strains; format: cell-based, Staphylococcus aureus; conditions: one value per group of strains; for MIC: Staphylococcus aureus, read-out: S. aureus (no. of strains) MIC
Text: as §1, §2

Haemophilus influenzae = conditions: reported value; cited from earlier work
[6] = versus Reference Compound 15, Table 1 data
[7] = 34 strains, linezolid-susceptible
[8] = mice, 37.5 mg/kg/day on a twice-daily schedule, blood on day 5
[9] = one value per group of strains, read-out: H. influenzae (no. of strains) MIC
[10] = read-out: MIC values against H. influenzae as summarised in text, summary of Table 3

With `O=C1O[C@@H](CO)CN1c1ccc(-c2ccc(N3CCOC3=O)nc2)c(F)c1` [Example 1] the MIC [1] was 0.5 µg/mL (≈ 1.34 µM), the “E. faecalis (no. of strains) MIC” value [1] was 1 (3 strains) μg/mL and the MIC90 (S. aureus) was 0.125 µg/mL (≈ 0.335 µM). The “MIC90 fold lower than Reference Compound 15, S. aureus” value (S. aureus; [6]) was “about 4 fold”, the “MIC90 fold lower than linezolid, S. aureus” value (S. aureus; versus linezolid, Table 1 data) was “about 16 fold” and the MIC [2] was 0.5 µg/mL (≈ 1.34 µM). The MIC90 (Enterococci) was 0.25 µg/mL (≈ 0.67 µM), the “MIC90 fold lower than Reference Compound 15, Enterococci species” value (Enterococci; [6]) was about 2 fold and the “MIC90 fold lower than linezolid, Enterococci species” value (Enterococci; versus linezolid, Table 1 data) was about 8 fold. For the same molecule, the MIC90 (S. pneumoniae; [7]) was 0.06 µg/mL (≈ 0.161 µM), the “MIC90 fold lower than Reference Compound 15, S. pneumoniae” value (S. pneumoniae; [6]) was “about 4 fold” and the “MIC90 fold lower than linezolid, S. pneumoniae” value (S. pneumoniae; versus linezolid, Table 1 data) was “about 16 fold”. The “Reticulocyte count on Day 5, cell count” value (reticulocytes; [8]) was 1.275e+11 L⁻¹, the “Ratio for reticulocyte count relative to that for compound of Example 1” value (reticulocytes; mice) was 1 and the MIC (H. influenzae; [9]) was 2 µg/mL (≈ 5.36 µM). The MIC (H. influenzae; [10]) was under 4 µg/mL and the “H. influenzae (no. of strains) MIC” value (H. influenzae; one value per group of strains) was 4 (1 strain)^ μg/mL.
With `O=C1O[C@@H](CO)CN1c1ccc(-c2ccc(N3CCNC3=O)nc2)c(F)c1` [Example 7] the MIC [2] was 0.5 µg/mL (≈ 1.34 µM), the “E. faecium (no. of strains) MIC” value [2] was 1 (4 strains) μg/mL and the “MIC values compared to linezolid or Reference Compound 15” value [3] was “lower range MIC values”.
With `O=C1O[C@@H](CO)CN1c1ccc(-c2ccc(N3CCCC3=O)nc2)c(F)c1` [Example 10] the MIC [1] was 1 µg/mL (≈ 2.69 µM), the “E. faecalis (no. of strains) MIC” value [1] was 2 (3 strains) μg/mL and the MIC [2] was 1 µg/mL (≈ 2.69 µM). The MIC (H. influenzae; [9]) was 4 µg/mL (≈ 10.8 µM), the MIC (H. influenzae; [10]) was under 4 µg/mL and the “MIC values compared to linezolid or Reference Compound 15” value [3] was “lower range MIC values”.
With `O=C1O[C@@H](CO)CN1c1ccc(-c2ccc(N3CCOC3=O)nc2)cc1` [Example 13] the MIC (H. influenzae; [9]) was 4 µg/mL (≈ 11.3 µM) and the “MIC values compared to linezolid or Reference Compound 15” value [3] was “lower range MIC values”.
For `CC(=O)NC[C@H]1CN(c2ccc(N3CCOCC3)c(F)c2)C(=O)O1` [Linezolid, linezolid], the “MICs against linezolid-resistant bacterial strains” value [4] is given as at least 8 µg/mL, the “MIC against Staphylococci species (such as S. aureus)” value (Staphylococcus species; generally displayed) is given as 2 to 4 µg/mL and the “useful MIC90 against Gram-positive Staphylococcus species” value (Staphylococcus species; species for which the drug is indicated) is given as 2 to 4 µg/mL. It also gave an MIC [1] of 16 µg/mL (≈ 47.4 µM), an MIC90 (S. aureus) of 2 µg/mL (≈ 5.93 µM) and an MIC [2] of 16 µg/mL (≈ 47.4 µM). The MIC90 (Enterococci) was 2 µg/mL (≈ 5.93 µM), the MIC [5] was 16 µg/mL (≈ 47.4 µM) and the “S. aureus (no. of strains) MIC” value [5] was >16 (3 strains) μg/mL. For the same molecule, the MIC90 (S. pneumoniae; [7]) was 1 µg/mL (≈ 2.96 µM), the MIC (H. influenzae; [9]) was 8 µg/mL (≈ 23.7 µM) and the “H. influenzae (no. of strains) MIC” value (H. influenzae; one value per group of strains) was 16 (2 strains) μg/mL. The “MIC90 against Haemophilus influenzae (typical)” value (Haemophilus influenzae) was 16 µg/mL (≈ 47.4 µM).
In the case of `CC(=O)NC[C@H]1CN(c2ccc(-c3ccc(N4CCOC4=O)nc3)c(F)c2)C(=O)O1` [Ref. Cpd. 14, N-[[(5S)-3-[3-fluoro-4-[6-(2-oxooxazolidin-3-yl)-3-pyridyl]phenyl]-2-oxo-oxazolidin-5-yl]methyl]acetamide], the “Reticulocyte count on Day 5, cell count” value (reticulocytes; [8]) is reported as 5e+10 L⁻¹, the “Ratio for reticulocyte count relative to that for compound of Example 1” value (reticulocytes; mice) is reported as 0.39 and the “fold drop in the reticulocyte cells counts compared to compound of Example 1” value (reticulocytes; mice) is reported as about 2.6 fold.
With `Cn1nnc(-c2ccc(-c3ccc(N4C[C@H](CO)OC4=O)cc3F)cn2)n1` [Ref. Cpd. 15, (5R)-3-[3-fluoro-4-[6-(2-methyltetrazol-5-yl)-3-pyridyl]phenyl]-5-(hydroxymethyl)oxazolidin-2-one] the MIC [1] was 4 µg/mL (≈ 10.8 µM), the MIC90 (S. aureus) was 0.5 µg/mL (≈ 1.35 µM) and the MIC [2] was 4 µg/mL (≈ 10.8 µM). The “E. faecium (no. of strains) MIC” value [2] was 2 (1 strain)^ μg/mL, the MIC90 (Enterococci) was 0.5 µg/mL (≈ 1.35 µM) and the MIC [5] was 8 µg/mL (≈ 21.6 µM). For the same molecule, the “S. aureus (no. of strains) MIC” value [5] was 4 (2 strains) μg/mL, the MIC90 (S. pneumoniae) was 0.25 µg/mL (≈ 0.675 µM) and the “Ratio for reticulocyte count relative to that for compound of Example 1” value (reticulocytes; mice) was 0.15. For the same molecule, the “fold drop in the reticulocyte cells counts compared to compound of Example 1” value (reticulocytes; mice) was about 2.6 fold, the “Reticulocyte count on Day 5, cell count” value (reticulocytes; mouse, in vivo, 37.5 mg/kg/day, 5 days) was 1.91e+10 L⁻¹ and the MIC (H. influenzae; [9]) was over 16 µg/mL. The “H. influenzae (no. of strains) MIC” value (H. influenzae; one value per group of strains) was 8 (4 strains) μg/mL.
